Reference: PMC7864192 (Cancers, 2021)
Like-named read-outs stand apart in the source and are kept apart here.

Key:
[1] = tested on: GCPA007 T2.IV patient-derived AGCT cell line; experiment: Cell viability drug screen (Cell Titer Glo 2.0, 72 h), mono- and combination therapy, GCPA007T2.IV; conditions: Homo sapiens, read-out: IC50 in monotherapy
[2] = tested on: GCPA113 T1.I patient-derived AGCT cell line; experiment: Cell viability drug screen (Cell Titer Glo 2.0, 72 h), mono- and combination therapy, GCPA113T1.I; conditions: Homo sapiens, read-out: IC50 in monotherapy
[3] = tested on: GCPA113 T1.II patient-derived AGCT cell line; experiment: Cell viability drug screen (Cell Titer Glo 2.0, 72 h), mono- and combination therapy, GCPA113T1.II; conditions: Homo sapiens, read-out: IC50 in monotherapy
Protocol: (§1) Cell lines were seeded at a density of 500 cells/well in 40 uL in 384-well plates (Corning, NY, USA) with the Multidrop™ cell dispenser (Thermo Fischer Scientific, Waltham, MA, USA) and sealed with Breathe-Easy® membrane (Sigma-Aldrich, St. Louis, MO, USA) to prevent evaporation. […] For each cell line, three biological repeats and two technical repeats each were performed in order to ensure the validity of the drug screens. […] Subsequently, 11 drugs and 12 drug combinations were dispensed and all wells (excluding blanks and non-DMSO control wells) were normalized to 1% DMSO using the HP Tecan D300e Digital Dispenser (Hewlett-Packard, Palo Alto, CA, USA). […] Next, the plates were covered with the Breathe-Easy membrane and incubated. After 72 h, the Multidrop dispensed 15 uL per well of Cell Titer Glo 2.0 (Thermo Fischer Scientific, Waltham, MA, USA) and plates were incubated in the dark for 10 min. After incubation, luminescence excitation was assessed in the Spectramax reader (Molecular Devices, San Jose, CA, USA) (top read, luminescence excitation at 500 nm) and raw data were processed in Microsoft Excel to subtract background luminescence. The Z-factor, a mathematical method used to quantify the quality of a drug screen based on the calculation of the separation band between the values of the positive and negative controls, was utilized to assess the quality of drug screens [54]. Screens with a Z-factor value of >0.5 were used for further analysis.
(§2) Overall cell survival (in %) was plotted against the drug concentration range of each drug (in log10[μM]) using GraphPad Prism 8.3.1. Values that exceeded 100% survival (within +20% biological deviation) were normalized to 100% survival. Similarly, values below 0% cell survival (within −20% biological deviation) were normalized to 0% survival. Values exceeding this deviation were excluded. Dose–response curves were obtained using the model “log(inhibitor) vs. variable slope (normalized response)” to fit the dose–response curves and R^2 values were used to indicate how well the model fit the data (Supplementary Materials Figures S4 and S5). […] The IC50 values were calculated based on the Chou–Talalay method using Compusyn software [55]. For anti-hormonal treatment, mostly provided as maintenance therapy, we used IC10 values in addition to the IC50.
(§3) In addition to the 11 monotherapies, 12 drug combinations were tested (Table 3) simultaneously with the individual drug treatments in the same 384-well plate. […] Synergy was evaluated using the mass action law, a systematic analysis assessing dose–response dynamics in a cost-effective manner [56, 57]. The combination index (CI) was used to indicate antagonistic (CI > 1) additive (CI = 1) and synergistic (CI < 1) effects [55].

[4] = tested on: GCPA007 T2.I patient-derived AGCT cell line; experiment: Cell viability drug screen (Cell Titer Glo 2.0, 72 h), mono- and combination therapy, GCPA007T2.I; conditions: Homo sapiens, 72 h, read-out: IC50 in monotherapy
Protocol: (§4) Cell lines were seeded at a density of 500 cells/well in 40 uL in 384-well plates (Corning, NY, USA) with the Multidrop™ cell dispenser (Thermo Fischer Scientific, Waltham, MA, USA) and sealed with Breathe-Easy® membrane (Sigma-Aldrich, St. Louis, MO, USA) to prevent evaporation. The SVOG-3e line was seeded at 1000 cells/well due to contact-dependent growth requirements. For each cell line, three biological repeats and two technical repeats each were performed in order to ensure the validity of the drug screens. […] Subsequently, 11 drugs and 12 drug combinations were dispensed and all wells (excluding blanks and non-DMSO control wells) were normalized to 1% DMSO using the HP Tecan D300e Digital Dispenser (Hewlett-Packard, Palo Alto, CA, USA). All drugs were applied in linear concentration ranges (Table 2), including 16 data points to enable combination drug testing at constant ratios (Table 3). Next, the plates were covered with the Breathe-Easy membrane and incubated. After 72 h, the Multidrop dispensed 15 uL per well of Cell Titer Glo 2.0 (Thermo Fischer Scientific, Waltham, MA, USA) and plates were incubated in the dark for 10 min. After incubation, luminescence excitation was assessed in the Spectramax reader (Molecular Devices, San Jose, CA, USA) (top read, luminescence excitation at 500 nm) and raw data were processed in Microsoft Excel to subtract background luminescence. […] Screens with a Z-factor value of >0.5 were used for further analysis.
(§5) Overall cell survival (in %) was plotted against the drug concentration range of each drug (in log10[μM]) using GraphPad Prism 8.3.1. Values that exceeded 100% survival (within +20% biological deviation) were normalized to 100% survival. Similarly, values below 0% cell survival (within −20% biological deviation) were normalized to 0% survival. Values exceeding this deviation were excluded. Dose–response curves were obtained using the model “log(inhibitor) vs. variable slope (normalized response)” to fit the dose–response curves and R^2 values were used to indicate how well the model fit the data (Supplementary Materials Figures S4 and S5). […] The maximum plasma concentration (Cmax) and the plasma concentration at steady state (Css) were used as toxicity thresholds. The Cmax was utilized for drugs in which short, high-dosage time courses are required, while the Css was used for maintenance therapy regimes such as anti-hormonal treatment. […] The IC50 values were calculated based on the Chou–Talalay method using Compusyn software [55]. For anti-hormonal treatment, mostly provided as maintenance therapy, we used IC10 values in addition to the IC50.
as §3

[5] = tested on: KGN cells (AGCT cell line); experiment: Cell viability drug screen (Cell Titer Glo 2.0, 72 h), mono- and combination therapy, KGN; conditions: Homo sapiens, read-out: IC50 in monotherapy
Protocol: KGN was cultured in conditions identical to AGCT-patient-derived cell lines.
as §4, §2

[6] = tested on: GCPA113 T1.III patient-derived AGCT cell line; experiment: Cell viability drug screen (Cell Titer Glo 2.0, 72 h), mono- and combination therapy, GCPA113T1.III; conditions: Homo sapiens, read-out: IC50 in monotherapy
Protocol: as §1, §2, §3

[7] = tested on: GCPA096 T1.I patient-derived AGCT cell line; experiment: Cell viability drug screen (Cell Titer Glo 2.0, 72 h), mono- and combination therapy, GCPA096T1.I; conditions: Homo sapiens, read-out: IC50 in monotherapy
Protocol: as §1, §2, §3

[8] = tested on: GCPA096 T1.XVI patient-derived AGCT cell line; experiment: Cell viability drug screen (Cell Titer Glo 2.0, 72 h), mono- and combination therapy, GCPA096T1.XVI; conditions: Homo sapiens, read-out: IC50 in monotherapy
[9] = tested on: GCPA096 T1.XV patient-derived AGCT cell line; experiment: Cell viability drug screen (Cell Titer Glo 2.0, 72 h), mono- and combination therapy, GCPA096T1.XV; conditions: Homo sapiens, 72 h, read-out: IC50 in monotherapy
Protocol: (§6) Cell lines were seeded at a density of 500 cells/well in 40 uL in 384-well plates (Corning, NY, USA) with the Multidrop™ cell dispenser (Thermo Fischer Scientific, Waltham, MA, USA) and sealed with Breathe-Easy® membrane (Sigma-Aldrich, St. Louis, MO, USA) to prevent evaporation. The SVOG-3e line was seeded at 1000 cells/well due to contact-dependent growth requirements. For each cell line, three biological repeats and two technical repeats each were performed in order to ensure the validity of the drug screens. […] Subsequently, 11 drugs and 12 drug combinations were dispensed and all wells (excluding blanks and non-DMSO control wells) were normalized to 1% DMSO using the HP Tecan D300e Digital Dispenser (Hewlett-Packard, Palo Alto, CA, USA). All drugs were applied in linear concentration ranges (Table 2), including 16 data points to enable combination drug testing at constant ratios (Table 3). Next, the plates were covered with the Breathe-Easy membrane and incubated. After 72 h, the Multidrop dispensed 15 uL per well of Cell Titer Glo 2.0 (Thermo Fischer Scientific, Waltham, MA, USA) and plates were incubated in the dark for 10 min. After incubation, luminescence excitation was assessed in the Spectramax reader (Molecular Devices, San Jose, CA, USA) (top read, luminescence excitation at 500 nm) and raw data were processed in Microsoft Excel to subtract background luminescence. The Z-factor, a mathematical method used to quantify the quality of a drug screen based on the calculation of the separation band between the values of the positive and negative controls, was utilized to assess the quality of drug screens [54]. Screens with a Z-factor value of >0.5 were used for further analysis.
as §5, §3

[10] = tested on: GCPA096 T1.V patient-derived AGCT cell line; experiment: Cell viability drug screen (Cell Titer Glo 2.0, 72 h), mono- and combination therapy, GCPA096T1.V; conditions: Homo sapiens, 72 h, read-out: IC50 in monotherapy
Protocol: as §4, §5, §3

[11] = tested on: GCPA096 T1.II patient-derived AGCT cell line; experiment: Cell viability drug screen (Cell Titer Glo 2.0, 72 h), mono- and combination therapy, GCPA096T1.II; conditions: Homo sapiens, 72 h, read-out: IC50 in monotherapy
[12] = tested on: GCPA028 T1.II patient-derived AGCT cell line; experiment: Cell viability drug screen (Cell Titer Glo 2.0, 72 h), mono- and combination therapy, GCPA028; conditions: Homo sapiens, 72 h, read-out: IC50 in monotherapy
Protocol: as §4, §5, §3

[13] = tested on: GCPA108 T3.IV patient-derived AGCT cell line; experiment: Cell viability drug screen (Cell Titer Glo 2.0, 72 h), mono- and combination therapy, GCPA108T3.IV; conditions: Homo sapiens, read-out: IC50 in monotherapy
[14] = tested on: AGCT cell lines; experiment: Cell viability drug screen (72 h), summary over AGCT cell lines (12 patient-derived, with or without KGN); type: cell-based, human
Protocol: as §6, §5, §3

SMILES | IC50 ([1]; 72 h) [µM] | IC50 ([2]; 72 h) [µM] | IC50 ([3]; 72 h) [µM] | IC50 [4] [µM] | IC50 ([5]; 72 h) [µM] | IC50 ([6]; 72 h) [µM] | IC50 ([7]; 72 h) [µM] | IC50 ([8]; 72 h) [µM] | IC50 [9] [µM] | IC50 [10] [µM] | IC50 [11] [µM] | IC50 [12] [µM] | IC50 ([13]; 72 h) [µM] | further results
N#Cc1ccc(C(c2ccc(C#N)cc2)n2cncn2)cc1 [Letrozole] | > 50 | > 50 | > 50 | > 50 | 35.4 | > 50 | > 50 | > 50 | > 50 | > 50 | > 50 | > 50 | – | –
CC(=O)O[C@H]1C(=O)[C@@]2(C)[C@H]([C@H](OC(=O)c3ccccc3)[C@]3(O)C[C@H](OC(=O)[C@H](O)[C@@H](NC(=O)c4ccccc4)c4ccccc4)C(C)=C1C3(C)C)[C@]1(OC(C)=O)CO[C@@H]1C[C@@H]2O [Paclitaxel] | > 50 | > 50 | 48.3 | > 50 | > 50 | > 50 | > 50 | > 50 | > 50 | > 50 | > 50 | – | > 50 | IC50 [1]: > 50 µM; IC50 [13]: > 50 µM; IC50 [2]: > 50 µM; IC50 [3]: 48.3 µM; IC50 [5]: > 50 µM; IC50 [6]: > 50 µM; IC50 ([14]; Homo sapiens, median over AGCT cell lines, read-out: median IC50 in monotherapy): 93.3 µM; IC50 [7]: > 50 µM; IC50 [8]: > 50 µM
CC/C(=C(\c1ccccc1)c1ccc(OCCN(C)C)cc1)c1ccccc1 [Tamoxifen] | – | – | – | – | – | – | – | – | – | – | – | – | – | range IC10 (concentration needed to obtain 10% cell death) ([14]; range over AGCT cell lines, monotherapy): 6.04 to 15.03 µM
CC(=O)[C@@]1(O)CC[C@H]2[C@@H]3CCC4=CC(=O)CCC4=C3[C@@H](c3ccc(N(C)C)cc3)C[C@@]21C [Ulipristal] | > 50 | > 50 | > 50 | > 50 | 43.7 | > 50 | > 50 | > 50 | > 50 | > 50 | > 50 | 49.9 | > 50 | –
